Target: Aβ42 (Homo sapiens, UniProt P05067)
Assay: Th-T (thioflavin-T) assay of Aβ42 aggregation
Assay type: biochemical
Settings: for Th-T fluorescence of Aβ42 (sheet Fig. 7a), mean of three wells: head suffix _50 (concentration 50); for Th-T assay plate reading, mean of three wells (Supplementary Fig. 47): source data, Ab alone and No Ab as controls; for Th-T fluorescence, mean of three wells: Supplementary Fig. 47 source data

Chain of Aβ42 (P05067 672-713): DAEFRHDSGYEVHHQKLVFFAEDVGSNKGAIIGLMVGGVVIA

`C=C1CCC2C(C)(CCC=C(C)C)C(O)CCC2(C)C1Cc1c(OC)oc(CO)c(C(=O)OC)c1=O` (stereo not drawn) [Compound 13] was tested, and the “Th-T fluorescence of Aβ42 (sheet Fig. 7a), mean of three wells” value (“Th-T fluorescence of Aβ42” for short) (reading M73) was 0.4729, the “Th-T fluorescence of Aβ42” value (reading M74) was 0.4696 and the “Th-T fluorescence of Aβ42” value (reading M75) was 0.4709. The “Th-T fluorescence of Aβ42” value (reading M76) was 0.4704, the “Th-T fluorescence of Aβ42” value (reading M77) was 0.4733 and the “Th-T fluorescence of Aβ42” value (reading M78) was 0.4716. For the same compound, the “Th-T fluorescence of Aβ42” value (reading M79) was 0.4696, the “Th-T fluorescence of Aβ42” value (reading M80) was 0.4702 and the “Th-T fluorescence of Aβ42” value (reading M81) was 0.4727. For the same compound, the “Th-T fluorescence of Aβ42” value (reading M82) was 0.4723, the “Th-T fluorescence of Aβ42” value (reading M83) was 0.4714 and the “Th-T fluorescence of Aβ42” value (reading M84) was 0.4716. For the same compound, the “Th-T assay plate reading, mean of three wells (Supplementary Fig. 47)” value (from here on “Th-T assay plate reading, mean”) (measurement M1) was 0.2585, the “Th-T assay plate reading, mean” value (measurement M2) was 0.2393 and the “Th-T assay plate reading, mean” value (measurement M3) was 0.2328. The “Th-T assay plate reading, mean” value (measurement M4) was 0.2253, the “Th-T assay plate reading, mean” value (measurement M5) was 0.2121 and the “Th-T assay plate reading, mean” value (measurement M6) was 0.2004. For the same compound, the “Th-T assay plate reading, mean” value (measurement M7) was 0.1938, the “Th-T assay plate reading, mean” value (measurement M8) was 0.1852 and the “Th-T assay plate reading, mean” value (measurement M9) was 0.1809. The “Th-T assay plate reading, mean” value (measurement M10) was 0.1743, the “Th-T assay plate reading, mean” value (measurement M11) was 0.1726 and the “Th-T assay plate reading, mean” value (measurement M12) was 0.1685. The “Th-T assay plate reading, mean” value (measurement M13) was 0.1699, the “Th-T assay plate reading, mean” value (measurement M14) was 0.1695 and the “Th-T assay plate reading, mean” value (measurement M15) was 0.1669. For the same compound, the “Th-T assay plate reading, mean” value (measurement M16) was 0.1721, the “Th-T fluorescence, mean of three wells (Fig. 7a)” value (“Th-T fluorescence … (Fig. 7a)” for short) (reading M107, compound at 10 (head suffix _10)) was 1.546 and the “Th-T fluorescence … (Fig. 7a)” value (reading M107, compound at 20 (head suffix _20)) was 1.033. The “Th-T fluorescence … (Fig. 7a)” value (reading M107, compound at 50 (head suffix _50)) was 0.4755, the “Th-T fluorescence … (Fig. 7a)” value (reading M108, compound at 10 (head suffix _10)) was 1.544 and the “Th-T fluorescence … (Fig. 7a)” value (reading M108, compound at 20 (head suffix _20)) was 1.036. The “Th-T fluorescence … (Fig. 7a)” value (reading M108, compound at 50 (head suffix _50)) was 0.4722, the “Th-T fluorescence … (Fig. 7a)” value (reading M109, compound at 10 (head suffix _10)) was 1.548 and the “Th-T fluorescence … (Fig. 7a)” value (reading M109, compound at 20 (head suffix _20)) was 1.038. For the same compound, the “Th-T fluorescence … (Fig. 7a)” value (reading M109, compound at 50 (head suffix _50)) was 0.476, the “Th-T fluorescence … (Fig. 7a)” value (reading M110, compound at 10 (head suffix _10)) was 1.549 and the “Th-T fluorescence … (Fig. 7a)” value (reading M110, compound at 20 (head suffix _20)) was 1.043. The “Th-T fluorescence … (Fig. 7a)” value (reading M110, compound at 50 (head suffix _50)) was 0.4785, the “Th-T fluorescence … (Fig. 7a)” value (reading M111, compound at 10 (head suffix _10)) was 1.553 and the “Th-T fluorescence … (Fig. 7a)” value (reading M111, compound at 20 (head suffix _20)) was 1.041. For the same compound, the “Th-T fluorescence … (Fig. 7a)” value (reading M111, compound at 50 (head suffix _50)) was 0.4751, the “Th-T fluorescence … (Fig. 7a)” value (reading M112, compound at 10 (head suffix _10)) was 1.549 and the “Th-T fluorescence … (Fig. 7a)” value (reading M112, compound at 20 (head suffix _20)) was 1.035. For the same compound, the “Th-T fluorescence … (Fig. 7a)” value (reading M112, compound at 50 (head suffix _50)) was 0.4724, the “Th-T fluorescence … (Fig. 7a)” value (reading M113, compound at 10 (head suffix _10)) was 1.549 and the “Th-T fluorescence … (Fig. 7a)” value (reading M113, compound at 20 (head suffix _20)) was 1.03. The “Th-T fluorescence … (Fig. 7a)” value (reading M113, compound at 50 (head suffix _50)) was 0.473, the “Th-T fluorescence … (Fig. 7a)” value (reading M114, compound at 10 (head suffix _10)) was 1.5404 and the “Th-T fluorescence … (Fig. 7a)” value (reading M114, compound at 20 (head suffix _20)) was 1.03. The “Th-T fluorescence … (Fig. 7a)” value (reading M114, compound at 50 (head suffix _50)) was 0.4728, the “Th-T fluorescence … (Fig. 7a)” value (reading M115, compound at 10 (head suffix _10)) was 1.549 and the “Th-T fluorescence … (Fig. 7a)” value (reading M115, compound at 20 (head suffix _20)) was 1.033. For the same compound, the “Th-T fluorescence … (Fig. 7a)” value (reading M115, compound at 50 (head suffix _50)) was 0.477, the “Th-T fluorescence … (Fig. 7a)” value (reading M116, compound at 10 (head suffix _10)) was 1.546 and the “Th-T fluorescence … (Fig. 7a)” value (reading M116, compound at 20 (head suffix _20)) was 1.033. The “Th-T fluorescence … (Fig. 7a)” value (reading M116, compound at 50 (head suffix _50)) was 0.4778, the “Th-T fluorescence … (Fig. 7a)” value (reading M117, compound at 10 (head suffix _10)) was 1.5424 and the “Th-T fluorescence … (Fig. 7a)” value (reading M117, compound at 20 (head suffix _20)) was 1.029. For the same compound, the “Th-T fluorescence … (Fig. 7a)” value (reading M117, compound at 50 (head suffix _50)) was 0.4747, the “Th-T fluorescence … (Fig. 7a)” value (reading M118, compound at 10 (head suffix _10)) was 1.549 and the “Th-T fluorescence … (Fig. 7a)” value (reading M118, compound at 20 (head suffix _20)) was 1.031. For the same compound, the “Th-T fluorescence … (Fig. 7a)” value (reading M118, compound at 50 (head suffix _50)) was 0.4759, the “Th-T fluorescence … (Fig. 7a)” value (reading M119, compound at 10 (head suffix _10)) was 1.551 and the “Th-T fluorescence … (Fig. 7a)” value (reading M119, compound at 20 (head suffix _20)) was 1.035. The “Th-T fluorescence … (Fig. 7a)” value (reading M119, compound at 50 (head suffix _50)) was 0.4763, the “Th-T fluorescence … (Fig. 7a)” value (reading M120, compound at 10 (head suffix _10)) was 1.5465 and the “Th-T fluorescence … (Fig. 7a)” value (reading M120, compound at 20 (head suffix _20)) was 1.04. The “Th-T fluorescence … (Fig. 7a)” value (reading M120, compound at 50 (head suffix _50)) was 0.4773, the “Th-T fluorescence … (Fig. 7a)” value (reading M121, compound at 10 (head suffix _10)) was 1.546 and the “Th-T fluorescence … (Fig. 7a)” value (reading M121, compound at 20 (head suffix _20)) was 1.029. The “Th-T fluorescence … (Fig. 7a)” value (reading M121, compound at 50 (head suffix _50)) was 0.4753, the “Th-T fluorescence … (Fig. 7a)” value (reading M122, compound at 10 (head suffix _10)) was 1.544 and the “Th-T fluorescence … (Fig. 7a)” value (reading M122, compound at 20 (head suffix _20)) was 1.028. For the same compound, the “Th-T fluorescence … (Fig. 7a)” value (reading M122, compound at 50 (head suffix _50)) was 0.4755, the “Th-T fluorescence … (Fig. 7a)” value (reading M123, compound at 10 (head suffix _10)) was 1.5409 and the “Th-T fluorescence … (Fig. 7a)” value (reading M123, compound at 20 (head suffix _20)) was 1.032. For the same compound, the “Th-T fluorescence … (Fig. 7a)” value (reading M123, compound at 50 (head suffix _50)) was 0.4791, the “Th-T fluorescence … (Fig. 7a)” value (reading M124, compound at 10 (head suffix _10)) was 1.548 and the “Th-T fluorescence … (Fig. 7a)” value (reading M124, compound at 20 (head suffix _20)) was 1.037. For the same compound, the “Th-T fluorescence … (Fig. 7a)” value (reading M124, compound at 50 (head suffix _50)) was 0.4785, the “Th-T fluorescence … (Fig. 7a)” value (reading M125, compound at 10 (head suffix _10)) was 1.541 and the “Th-T fluorescence … (Fig. 7a)” value (reading M125, compound at 20 (head suffix _20)) was 1.031. For the same compound, the “Th-T fluorescence … (Fig. 7a)” value (reading M125, compound at 50 (head suffix _50)) was 0.4776, the “Th-T fluorescence … (Fig. 7a)” value (reading M126, compound at 10 (head suffix _10)) was 1.541 and the “Th-T fluorescence … (Fig. 7a)” value (reading M126, compound at 20 (head suffix _20)) was 1.031. For the same compound, the “Th-T fluorescence … (Fig. 7a)” value (reading M126, compound at 50 (head suffix _50)) was 0.4736, the “Th-T fluorescence … (Fig. 7a)” value (reading M127, compound at 10 (head suffix _10)) was 1.546 and the “Th-T fluorescence … (Fig. 7a)” value (reading M127, compound at 20 (head suffix _20)) was 1.033. The “Th-T fluorescence … (Fig. 7a)” value (reading M127, compound at 50 (head suffix _50)) was 0.4763, the “Th-T fluorescence … (Fig. 7a)” value (reading M128, compound at 10 (head suffix _10)) was 1.55 and the “Th-T fluorescence … (Fig. 7a)” value (reading M128, compound at 20 (head suffix _20)) was 1.029. For the same compound, the “Th-T fluorescence … (Fig. 7a)” value (reading M128, compound at 50 (head suffix _50)) was 0.4748, the “Th-T fluorescence, mean of three wells” value (time-course reading M97) was 1.044 and the “Th-T fluorescence, mean of three wells” value (time-course reading M98) was 1.046. For the same compound, the “Th-T fluorescence, mean of three wells” value (time-course reading M99) was 1.04, the “Th-T fluorescence, mean of three wells” value (time-course reading M100) was 1.04 and the “Th-T fluorescence, mean of three wells” value (time-course reading M101) was 1.043. The “Th-T fluorescence, mean of three wells” value (time-course reading M102) was 1.042, the “Th-T fluorescence, mean of three wells” value (time-course reading M103) was 1.041 and the “Th-T fluorescence, mean of three wells” value (time-course reading M104) was 1.042. The “Th-T fluorescence, mean of three wells” value (time-course reading M105) was 1.041, the “Th-T fluorescence, mean of three wells” value (time-course reading M106) was 1.044 and the “Th-T fluorescence, mean of three wells” value (time-course reading M107) was 1.043. For the same compound, the “Th-T fluorescence, mean of three wells” value (time-course reading M108) was 1.038, the “Th-T fluorescence, mean of three wells” value (time-course reading M109) was 1.039 and the “Th-T fluorescence, mean of three wells” value (time-course reading M110) was 1.044. The “Th-T fluorescence, mean of three wells” value (time-course reading M111) was 1.042, the “Th-T fluorescence, mean of three wells” value (time-course reading M112) was 1.039 and the “Th-T fluorescence, mean of three wells” value (time-course reading M113) was 1.042. For the same compound, the “Th-T fluorescence, mean of three wells” value (time-course reading M114) was 1.037, the “Th-T fluorescence, mean of three wells” value (time-course reading M115) was 1.041 and the “Th-T fluorescence, mean of three wells” value (time-course reading M116) was 1.037.

— publication PMC7156458, “Synthetic biology based construction of biological activity-related library of fungal decalin-containing diterpenoid pyrones” (Nature Communications, 2020)
